Test results: US20180318311A1, “TRICYCLIC 2-QUINOLINONES AS ANTIBACTERIALS” (priority 2017, published 2018)
Converted amounts (≈) assume the structure as drawn. Read-outs that look alike come from different tables or passages of the source.

Assays:
Format in all cases: cell-based
[1] = system: S. aureus ATCC 49951 (NB01006); experiment: MIC by broth microdilution, S. aureus NB01006; details: Staphylococcus aureus, ATCC49951, CAMHB, 35° C., 20 hours, read-out: Antibacterial activity (MIC) NB01006
Method: (§1) Bacterial isolates were cultivated from −80° C. frozen stocks by overnight passages at 35° C. in ambient air on Mueller-Hinton agar plates (MHA, Becton Dickinson, Franklin Lakes, NB) with the exception of S. pneumoniae which was grown overnight at 35° C. in the presence of 5% CO2 on blood agar plates (tryptic soy agar with 5% sheep blood (Thermo Scientific, Waltham, Mass.) . The following quality control and wild type strains were obtained from the American Type Culture Collection (ATCC; Rockville, Md.) and are coded in the Novartis strain collection as indicated: E. coli ATCC 25922 (NB27001), E. faecalis ATCC 29212 (NB04001), S. aureus ATCC 49951 (NB01006) and S. pneumoniae ATCC […] (NB07001). […] P. aeruginosa NB52019, obtained from Queen's University (Kingston, Ontario, Canada), is the wild-type PAO1 strain.
(§2) Minimal Inhibitory Concentrations (MIC) were determined by the broth microdilution method in accordance with Clinical and Laboratories Institute (CLSI) guidelines. In brief, fresh bacterial overnight cultures were re-suspended in sterile saline, adjusted to a 0.5 McFarland turbidity standard and then diluted to yield a final inoculum of approximately 5×10^5 colony-forming units (CFU)/mL. All bacterial suspensions were prepared in cation adjusted Mueller-Hinton Broth (CAMHB; Becton Dickinson, Franklin Lakes, N.J.;) with the exception of S. pneumoniae which was prepared in CAMHB supplemented with 5% lysed horse blood (Hardy Diagnostics, Santa Maria, Calif.). Two-fold serial dilutions of compounds were prepared in 100% dimethyl sulfoxide (DMSO) at 100-fold the highest final assay concentration; the resulting dilution series of compounds were diluted 1:10 with sterile water. Ten μL of the drug dilution series in 10% DMSO was transferred to microtiter wells and 90 μL of bacterial suspension was inoculated into the wells. All inoculated microdilution trays were incubated in ambient air at 35° C. for 20 hours. Following incubation, assay plates were read in a microtiter plate reader at 600 nm and visually inspected to confirm the MIC endpoint well with the OD value. The lowest concentration of the compound that prevented visible growth was recorded as the MIC (in μg/mL).

[2] = system: S. aureus NB01006-AVR005, gyrA (S84L), grlA (580F) and grlB (E471K); experiment: microbe, parasite or virus in culture; details: Staphylococcus aureus, 20 h, read-out: Antibacterial activity (MIC) NB01006-AVR005
Method: as §1, §2

[3] = system: S. aureus NB01080 fluoroquinolone-resistant clinical isolate; experiment: MIC by broth microdilution, S. aureus NB01080; details: Staphylococcus aureus, CAMHB, 35° C., 20 hours, read-out: Antibacterial activity (MIC) NB01080
Method: as §1, §2

[4] = system: E. faecalis ATCC 29212 (NB04001); experiment: MIC by broth microdilution, E. faecalis NB04001; details: Enterococcus faecalis, ATCC29212, CAMHB, 35° C., 20 hours, read-out: Antibacterial activity (MIC) NB04001
Method: as §1, §2

[5] = system: S. pneumoniae ATCC 25922 (NB07001); experiment: MIC by broth microdilution, S. pneumoniae NB07001; details: Streptococcus pneumoniae, read-out: Antibacterial activity (MIC) NB07001
Method: as §1, §2

[6] = system: E. coli ATCC 25922 (NB27001); experiment: MIC by broth microdilution, E. coli NB27001; details: Escherichia coli, ATCC25922, CAMHB, 35° C., 20 hours, read-out: Antibacterial activity (MIC) NB27001
Method: as §1, §2

[7] = system: P. aeruginosa NB52019, wild-type PAO1 strain; experiment: MIC by broth microdilution, P. aeruginosa NB52019; details: Pseudomonas aeruginosa, CAMHB, 35° C., 20 hours, read-out: Antibacterial activity (MIC) NB52019
Method: as §1, §2

[8] = ATCC25922, S. pneumoniae, CAMHB supplemented with 5% lysed horse blood, 35° C., 20 hours

Compound | MIC [1] [µg/mL] | MIC [2] [µg/mL] | MIC [3] [µg/mL] | MIC [4] [µg/mL] | MIC ([5]; ATCC25922, 20 h) [µg/mL] | MIC [6] [µg/mL] | MIC [7] [µg/mL] | MIC [5, 8] [µg/mL]
C[C@H]1COc2c(N3CC4CCCC4(CN)C3)c(F)cc3cc(C(=O)O)c(=O)n1c23 (single isomer, unassigned) [Example 1.50] | < 1 | 1 to 32 (≈ 2.49 to 79.7 µM) | 1 to 32 (≈ 2.49 to 79.7 µM) | 1 to 32 (≈ 2.49 to 79.7 µM) | < 1 | > 32 | > 32 | –
C[C@H]1COc2c(N3CC4CC(N)C4C3)c(F)cc3cc(C(=O)O)c(=O)n1c23 (single isomer, unassigned) [Example 1.62] | 1 to 32 (≈ 2.68 to 85.7 µM) | > 32 | > 32 | > 32 | > 32 | > 32 | > 32 | –
C[C@H]1COc2c(N3CC(N)C(CO)C3)c(F)cc3cc(C(=O)O)c(=O)n1c23 (single isomer, unassigned) [Example 1.77] | 1 to 32 (≈ 2.65 to 84.8 µM) | > 32 | > 32 | > 32 | 1 to 32 (≈ 2.65 to 84.8 µM) | > 32 | > 32 | –
C[C@H]1COc2c(N3CC(CO)C(N(C)C)C3)c(F)cc3cc(C(=O)O)c(=O)n1c23 (single isomer, unassigned) [Example 1.78] | 1 to 32 (≈ 2.47 to 78.9 µM) | > 32 | > 32 | > 32 | 1 to 32 (≈ 2.47 to 78.9 µM) | 1 to 32 (≈ 2.47 to 78.9 µM) | > 32 | –
CC1CCc2c(N3CC[C@@H](C4(N)CC4)C3)c(F)cc3cc(C(=O)O)c(=O)n1c23.O=C(O)C(F)(F)F (single isomer, unassigned) [Example 8] | < 1 | < 1 | < 1 | < 1 | – | 1 to 32 | 1 to 32 | < 1
CC1Cc2c(N3CC[C@@H](C4(N)CC4)C3)c(F)cc3cc(C(=O)O)c(=O)n1c23.Cl (single isomer, unassigned) [Example 9.1] | < 1 | 1 to 32 | < 1 | < 1 | – | 1 to 32 | > 32 | < 1
C[C@H]1COc2c(N3CCC4(CC4N)C3)c(F)c(F)c3cc(C(=O)O)c(=O)n1c23 (single isomer, unassigned) [Example 13.4] | < 1 | 1 to 32 (≈ 2.56 to 81.8 µM) | 1 to 32 (≈ 2.56 to 81.8 µM) | < 1 | < 1 | < 1 | 1 to 32 (≈ 2.56 to 81.8 µM) | –
C[C@H]1COc2c(N3CC4CC4(N)C3)c(F)c(F)c3cc(C(=O)O)c(=O)n1c23 (single isomer, unassigned) [Example 13.6] | < 1 | 1 to 32 (≈ 2.65 to 84.8 µM) | < 1 | < 1 | < 1 | 1 to 32 (≈ 2.65 to 84.8 µM) | > 32 | –
C[C@H]1COc2c(N3CC4C(N)C4C3)c(F)c(F)c3cc(C(=O)O)c(=O)n1c23 (single isomer, unassigned) [Example 13.7] | < 1 | 1 to 32 (≈ 2.65 to 84.8 µM) | 1 to 32 (≈ 2.65 to 84.8 µM) | < 1 | < 1 | < 1 | 1 to 32 (≈ 2.65 to 84.8 µM) | –
C[C@H]1COc2c(N3CC[C@@H](C4(N)CC4)C3)c(F)cc3cc(C(=O)O)c(=O)n1c23.Cl [Example 1.1, (S)-10-((R)-3-(1-aminocyclopropyl)pyrrolidin-1-yl)-9-fluoro-3-methyl-5-oxo-2,3-dihydro-5H-[1,4]oxazino[2,3,4-ij]quinoline-6-carboxylic acid hydrochloride salt] | < 1 | 1 to 32 | < 1 | < 1 | – | 1 to 32 | > 32 | < 1
C[C@H]1COc2c(N3CC[C@H](N)C3)c(F)cc3cc(C(=O)O)c(=O)n1c23 [Example 1.2, (S)-10-((S)-3-aminopyrrolidin-1-yl)-9-fluoro-3-methyl-5-oxo-2,3-dihydro-5H-[1,4]oxazino[2,3,4-ij]quinoline-6-carboxylic acid] | 1 to 32 (≈ 2.88 to 92.1 µM) | > 32 | > 32 | 1 to 32 (≈ 2.88 to 92.1 µM) | 1 to 32 (≈ 2.88 to 92.1 µM) | 1 to 32 (≈ 2.88 to 92.1 µM) | 1 to 32 (≈ 2.88 to 92.1 µM) | –
C[C@H]1COc2c(N3CC4CC4(N)C3)c(F)cc3cc(C(=O)O)c(=O)n1c23 (stereo partly drawn) [Example 1.3, (3S)-10-(1-amino-3-azabicyclo[3.1.0]hexan-3-yl)-9-fluoro-3-methyl-5-oxo-2,3-dihydro-5H-[1,4]oxazino[2,3,4-ij]quinoline-6-carboxylic acid] | < 1 | 1 to 32 (≈ 2.78 to 89 µM) | 1 to 32 (≈ 2.78 to 89 µM) | 1 to 32 (≈ 2.78 to 89 µM) | 1 to 32 (≈ 2.78 to 89 µM) | 1 to 32 (≈ 2.78 to 89 µM) | > 32 | –
C[C@H]1COc2c(N3CCN(C)CC3)c(F)cc3cc(C(=O)O)c(=O)n1c23 [Example 1.4, (S)-9-fluoro-3-methyl-10-(4-methylpiperazin-1-yl)-5-oxo-2,3-dihydro-5H-[1,4]oxazino[2,3,4-ij]quinoline-6-carboxylic acid] | 1 to 32 (≈ 2.77 to 88.6 µM) | > 32 | > 32 | > 32 | > 32 | 1 to 32 (≈ 2.77 to 88.6 µM) | > 32 | –
C[C@H](N)[C@@H]1CCN(c2c(F)cc3cc(C(=O)O)c(=O)n4c3c2OC[C@@H]4C)C1 [Example 1.5, (S)-10-((R)-3-((S)-1-aminoethyl)pyrrolidin-1-yl)-9-fluoro-3-methyl-5-oxo-2,3-dihydro-5H-[1,4]oxazino[2,3,4-ij]quinoline-6-carboxylic acid] | < 1 | 1 to 32 (≈ 2.66 to 85.2 µM) | < 1 | < 1 | < 1 | 1 to 32 (≈ 2.66 to 85.2 µM) | 1 to 32 (≈ 2.66 to 85.2 µM) | –
C[C@H]1COc2c(N3CC[C@H](O)C3)c(F)cc3cc(C(=O)O)c(=O)n1c23 [Example 1.6, (S)-9-fluoro-10-((S)-3-hydroxypyrrolidin-1-yl)-3-methyl-5-oxo-2,3-dihydro-5H-[1,4]oxazino[2,3,4-ij]quinoline-6-carboxylic acid] | < 1 | > 32 | 1 to 32 (≈ 2.87 to 91.9 µM) | 1 to 32 (≈ 2.87 to 91.9 µM) | 1 to 32 (≈ 2.87 to 91.9 µM) | 1 to 32 (≈ 2.87 to 91.9 µM) | > 32 | –
C[C@H]1COc2c(N3CCC(=C(Cl)CO)CC3)c(F)cc3cc(C(=O)O)c(=O)n1c23 [Example 1.8, (S)-10-(4-(1-chloro-2-hydroxyethylidene)piperidin-1-yl)-9-fluoro-3-methyl-5-oxo-2,3-dihydro-5H-[1,4]oxazino[2,3,4-ij]quinoline-6-carboxylic acid] | < 1 | 1 to 32 (≈ 2.36 to 75.7 µM) | < 1 | < 1 | < 1 | > 32 | > 32 | –
C[C@H]1COc2c(N3CCC(C4(N)COC4)C3)c(F)cc3cc(C(=O)O)c(=O)n1c23 (stereo partly drawn) [Example 1.9, (3S)-10-(3-(3-aminooxetan-3-yl)pyrrolidin-1-yl)-9-fluoro-3-methyl-5-oxo-2,3-dihydro-5H-[1,4]oxazino[2,3,4-ij]quinoline-6-carboxylic acid] | 1 to 32 (≈ 2.48 to 79.3 µM) | > 32 | > 32 | > 32 | 1 to 32 (≈ 2.48 to 79.3 µM) | > 32 | > 32 | –
C[C@H]1COc2c(N3CCC(=C(Cl)CN)CC3)c(F)cc3cc(C(=O)O)c(=O)n1c23 [Example 1.10, (S)-10-(4-(2-amino-1-chloroethylidene)piperidin-1-yl)-9-fluoro-3-methyl-5-oxo-2,3-dihydro-5H-[1,4]oxazino[2,3,4-ij]quinoline-6-carboxylic acid] | 1 to 32 (≈ 2.37 to 75.9 µM) | > 32 | 1 to 32 (≈ 2.37 to 75.9 µM) | 1 to 32 (≈ 2.37 to 75.9 µM) | < 1 | > 32 | > 32 | –
